Six molecules from patent US4962109A, “Insecticidally and acaricidally active pyrimidine esters and intermediates therefor” (Imperial Chemical Industries PLC, priority 1985, dated 1990) can be followed below.

Holding throughout (type): in vivo
One assay relates to insect and acarine pests. As to the kind of experiment: Biological screening of enantiomers, insecticidal and acaricidal activity. Conditions: (-) versus (+) enantiomer.
In assay [1] the test system is Tetranychus urticae (spider mites - adult). As to the kind of experiment: Contact test on spider mites - adult (TUa), French bean leaf, mortality. To be noted: 72 h, 500 ppm, contact, 3 days, read-out: TUa grading of mortality. Put shortly: (§1)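 Product dissolved in acetone, diluted in water with 0.01% wetting agent to 500, 250 or 100 ppm; pests and/or host medium (plant or foodstuff) treated. Mortality or knockdown assessed 1–3 days later, graded A (80–100%), B (50–79%) or C (<50%).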

Assay [2] deals with Tetranychus urticae (spider mites - ova). The experiment in a line: Contact test on spider mites - ova (TUe), French bean leaf, mortality. To be noted: 144 h, 500 ppm, contact, 6 days, read-out: TUe grading of mortality. Put shortly: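 Graded read-out: A 80-100%, B 50-79%, C below 50% mortality or knockdown, assessed usually 1-3 days post-treatment. Liquid preparations at 500, 250 or 100 ppm by weight, from acetone solution diluted in water with 0.01% wetting agent, applied to pests and/or their host plant or food medium.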

Another assay deals with Myzus persicae (aphids). The experiment in a line: Contact test on aphids (MP), Chinese Cabbage leaf, mortality. To be noted: 72 h, 500 ppm, contact, 3 days, read-out: MP grading of mortality. Put shortly: as §1
For assay [3], the system named is Nilaparvata lugens (brown plant hopper). As to the kind of experiment: Contact test on brown plant hopper (NL), Rice plant, mortality. To be noted: 72 h, 3 days, read-out: NL grading of mortality. The method, then: (§2) The activity of the Product was determined using a variety of insect pests. The Product was used in the form of liquid preparations containing 500, 250 or 100 parts per million (ppm) by weight of the Product. The preparations were made by dissolving the Product in acetone and diluting the solutions with water containing 0.01% by weight of a wetting agent sold under the trade name "LISSAPOL" NX until the liquid preparations contained the required concentration of the Product. "Lissapol" is a Registered Trade Mark.
(§3) The test procedure adopted with regard to each pest was basically the same and comprised supporting a number of the pests on a medium which was usually a host plant or a foodstuff on which the pests feed, and treating either or both the pests and the medium with the preparations. The mortality of the pests was then assessed at periods usually varying from one to three days after the treatment.
(§4) The results of the tests are given in Table III for each of the Products, at the rate in parts per million given in the second column as a grading of mortality designated as A, B or C wherein A indicates 80-100% mortality or knockdown, B indicates 50-79% mortality or knockdown and C indicates less than 50% mortality or knockdown.

Assay [4] concerns Musca domestica (houseflies - adults). As to the kind of experiment: Knockdown test on houseflies - adults (MD/KD), Cotton wool/sugar. Conditions: 500 ppm, 4 hours, read-out: MD/KD grading of knockdown. The essentials: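 Adult houseflies exposed to the compound at 500, 250 or 100 ppm in acetone/water with 0.01% wetting agent, on a cotton wool/sugar medium. Knockdown and mortality assessed, graded A (80-100%), B (50-79%) or C (<50%).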

For assay [5] the test system is unchanged. As to the kind of experiment: Contact test on houseflies - adults (MD), Cotton wool/sugar, mortality. To be noted: 24 h, 500 ppm, contact, ** test duration of 1 day, read-out: MD grading of mortality. Put shortly:
as §1

Assay [6] deals with Blattella germanica (cockroach nymphs). The experiment in a line: Residual test on cockroach nymphs (BG/R), Plastic pot, mortality. Conditions: 72 h, 3 days, read-out: BG/R grading of mortality. On the procedure:
as §2, §3, §4
BG/R Blattella germanica

Assay [7] has as its system Heliothis virescens (tobacco budworm - larvae). As to the kind of experiment: Residual test on tobacco budworm larvae (HV), Cotton leaf, mortality. Conditions: 48 h, read-out: HV grading of mortality. The essentials:
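Product in acetone diluted with water containing 0.01% Lissapol NX, at 500, 250 or 100 ppm; pests and/or host medium (here cotton leaf) treated. Mortality scored one to three days later, graded A (80-100%), B (50-79%), C (<50%).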

Assay [8] concerns Spodoptera exigua (lesser army worm - larvae). As to the kind of experiment: Residual test on lesser army worm larvae (SP), Cotton leaf, mortality. To be noted: 48 h, 500 ppm, residual, * test duration of 3 days, read-out: SP grading of mortality. The essentials: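 Product dissolved in acetone and diluted in water with 0.01% wetting agent to 500, 250 or 100 ppm; larvae and/or cotton leaf host treated. Mortality or knockdown scored one to three days later and graded A (80-100%), B (50-79%) or C (<50%).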

In assay [9] the test system is Diabrotica balteata (rootworm larvae). As to the kind of experiment: Residual test on rootworm larvae (DB), Filter paper/maize seed, mortality. Conditions: 48 h, 500 ppm, residual, * test duration of 3 days, read-out: DB grading of mortality. The essentials:
as §1

SMILES strings stand for the structures.

Take `COCc1c(F)c(F)c(COC(=O)C(c2cnc(C(C)(C)C)nc2)C(C)(C)C)c(F)c1F` (single isomer, unassigned; enantiomer 4) [(-)-enantiomer, 4-(methoxymethyl)-2,3,5,6-tetrafluorobenzyl 2-[2-(1,1-dimethylethyl)pyrimidin-5-yl]-3,3-dimethylbutanoate]: in the assay with insect and acarine pests, the “insecticidal and acaricidal activity of enantiomers” value was “substantially greater insecticidal and acaricidal activity than the (+)-enantiomer”.

On to `CC[C@@H](C(=O)O[C@@H](C#N)c1ccc(F)c(Oc2ccccc2)c1)c1cnc(C(C)(C)C)nc1` (racemic) [Compound 121, (RS)-α-cyano-4-fluoro-3-phenoxybenzyl (RS)-2-[2-(1,1-dimethylethyl)pyrimidin-5-yl]butanoate], for which the mortality at 500 ppm in [1] was 80 to 100%; in [2], less than 50%; in the assay on Myzus persicae (aphids) it was 80 to 100%; in [3], less than 50%; in [5] it was 80 to 100%; in assay [6], less than 50%. The mortality at 500 ppm in assay [7], in [8] and in assay [9] was 80 to 100% throughout. In [4], the pest or weed control at 500 ppm fell in the range of 50 to 79%.

Take `C=CCc1c(F)c(F)c(COC(=O)C(c2cnc(-c3ccccc3)nc2)C(C)C)c(F)c1F` (racemic) [Compound 113, 4-(prop-2-en-1-yl)-2,3,5,6-tetrafluorobenzyl (RS)-2-[2-phenylpyrimidin-5-yl)-3-methylbutanoate]: the mortality at 500 ppm was less than 50% in assay [1]; less than 50% in assay [2]; 50 to 79% in the assay on Myzus persicae (aphids); less than 50% in assay [3]; 80 to 100% in [5]; less than 50% in assay [6]. Also, the mortality at 500 ppm in assay [7], in assay [8] and in assay [9] was less than 50% throughout. The pest or weed control at 500 ppm in assay [4] fell in the range of 80 to 100%.

Consider `C=CCc1c(F)c(F)c(COC(=O)C(c2cnc(C(Cl)(Cl)Cl)nc2)C(C)C)c(F)c1F` (racemic) [Compound 117, 2,3,5,6-tetrafluoro-4-(prop-2-en-1-yl)benzyl (RS)-2-(2-trichloromethylpyrimidin-5-yl)-3-methylbutanoate], for which the mortality at 500 ppm (in assay [1]; in assay [2]; with Myzus persicae (aphids); in [3]; in [5]; in assay [6]) was 80 to 100% throughout. Moreover, the mortality at 500 ppm in [7] was in the range of 80 to 100%; in [8], 80 to 100%; in assay [9] it was 50 to 79%. Besides, the pest or weed control at 500 ppm in [4] is 80 to 100%.

For `COCc1c(F)c(F)c(COC(=O)C(c2cnc(C(F)(F)F)nc2)C(C)C)c(F)c1F` (racemic) [Compound 116, 2,3,5,6-tetrafluoro-4-(methoxymethyl)benzyl (RS)-2-(2-trifluoromethylpyrimidin-5-yl)-3-methylbutanoate], the mortality at 500 ppm (in [1]; in [2]; in the assay on Myzus persicae (aphids); in assay [3]; in assay [5]; in [6]) was 80 to 100% each time. Besides, the mortality at 500 ppm in assay [7], in [8] and in [9] was 80 to 100% each time. Moreover, the pest or weed control at 500 ppm in assay [4] was in the range of 80 to 100%.

On to `C=CCc1c(F)c(F)c(COC(=O)C(CC)c2cnc(C(C)(C)C)nc2)c(F)c1F` (racemic) [Compound 123, 2,3,5,6-tetrafluoro-4-(prop-2-en-1-yl)benzyl (RS)-2-[2-(1,1-dimethylethyl)pyrimidin-5-yl]butanoate], for which the mortality at 500 ppm was in the range of 80 to 100% in assay [1]; 80 to 100% in assay [2]; 80 to 100% in the assay with Myzus persicae (aphids); 80 to 100% in [3]; 80 to 100% in assay [5]; 50 to 79% in assay [6]. Besides, the mortality at 500 ppm in assay [7] is 80 to 100%; in assay [8], 80 to 100%; in [9], less than 50%. Besides, the pest or weed control at 500 ppm in [4] lay within 80 to 100%.
